Laboratory results from patent US20180099931A1 (AbbVie S.à.r.l., priority 2016, published 2018).
Where two headings read alike, the source gives them in different places.

Biological target: T1, F508delCFTR (Homo sapiens, UniProt P13569, DEL508-508)
T1 construct: expressed in transfected cells; host or cells: CFBE41o- human lung-derived epithelial cells (CFBE4lo-F508delCFTR-HRP), doxycycline-inducible
Test: Cell Surface Expression-Horse Radish Peroxidase (CSE-HRP) Assay;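 as to Maximum % activity (with co-corrector): co-corrector and positive control are both the same reference corrector at 2 µM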;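 as to Maximum % activity (without co-corrector): percent of the 2 µM on-plate positive control corrector response above DMSO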
Format: cell-based
Details: for Emax / Maximum % activity (with co-corrector): maximum at any tested concentration, normalized to on-plate positive control; for Emax: read-out: Maximum % activity (without co-corrector)

[1] = test compound without co-corrector
[2] = test compound without co-corrector, read-out: EC50 (without co-corrector)
[3] = with co-corrector (2 μM of 3-[(2R,4R)-4-({[1-(2,2-difluoro-1,3-benzodioxol-5-yl)cyclopropyl]carbonyl}amino)-7-methoxy-3,4-dihydro-2H-chromen-2-yl]benzoic acid)
[4] = with co-corrector (2 μM of 3-[(2R,4R)-4-({[1-(2,2-difluoro-1,3-benzodioxol-5-yl)cyclopropyl]carbonyl}amino)-7-methoxy-3,4-dihydro-2H-chromen-2-yl]benzoic acid), read-out: EC50 (with co-corrector)
[5] = CSE-HRP, test compound without co-corrector, read-out: EC50 (without co-corrector)
[6] = CSE-HRP, with co-corrector (2 μM of 3-[(2R,4R)-4-({[1-(2,2-difluoro-1,3-benzodioxol-5-yl)cyclopropyl]carbonyl}amino)-7-methoxy-3,4-dihydro-2H-chromen-2-yl]benzoic acid), read-out: EC50 (with co-corrector)
[7] = CSE-HRP, with co-corrector (2 μM)

T1 sequence (P13569 with tags, fused parts or gaps DEL508-508): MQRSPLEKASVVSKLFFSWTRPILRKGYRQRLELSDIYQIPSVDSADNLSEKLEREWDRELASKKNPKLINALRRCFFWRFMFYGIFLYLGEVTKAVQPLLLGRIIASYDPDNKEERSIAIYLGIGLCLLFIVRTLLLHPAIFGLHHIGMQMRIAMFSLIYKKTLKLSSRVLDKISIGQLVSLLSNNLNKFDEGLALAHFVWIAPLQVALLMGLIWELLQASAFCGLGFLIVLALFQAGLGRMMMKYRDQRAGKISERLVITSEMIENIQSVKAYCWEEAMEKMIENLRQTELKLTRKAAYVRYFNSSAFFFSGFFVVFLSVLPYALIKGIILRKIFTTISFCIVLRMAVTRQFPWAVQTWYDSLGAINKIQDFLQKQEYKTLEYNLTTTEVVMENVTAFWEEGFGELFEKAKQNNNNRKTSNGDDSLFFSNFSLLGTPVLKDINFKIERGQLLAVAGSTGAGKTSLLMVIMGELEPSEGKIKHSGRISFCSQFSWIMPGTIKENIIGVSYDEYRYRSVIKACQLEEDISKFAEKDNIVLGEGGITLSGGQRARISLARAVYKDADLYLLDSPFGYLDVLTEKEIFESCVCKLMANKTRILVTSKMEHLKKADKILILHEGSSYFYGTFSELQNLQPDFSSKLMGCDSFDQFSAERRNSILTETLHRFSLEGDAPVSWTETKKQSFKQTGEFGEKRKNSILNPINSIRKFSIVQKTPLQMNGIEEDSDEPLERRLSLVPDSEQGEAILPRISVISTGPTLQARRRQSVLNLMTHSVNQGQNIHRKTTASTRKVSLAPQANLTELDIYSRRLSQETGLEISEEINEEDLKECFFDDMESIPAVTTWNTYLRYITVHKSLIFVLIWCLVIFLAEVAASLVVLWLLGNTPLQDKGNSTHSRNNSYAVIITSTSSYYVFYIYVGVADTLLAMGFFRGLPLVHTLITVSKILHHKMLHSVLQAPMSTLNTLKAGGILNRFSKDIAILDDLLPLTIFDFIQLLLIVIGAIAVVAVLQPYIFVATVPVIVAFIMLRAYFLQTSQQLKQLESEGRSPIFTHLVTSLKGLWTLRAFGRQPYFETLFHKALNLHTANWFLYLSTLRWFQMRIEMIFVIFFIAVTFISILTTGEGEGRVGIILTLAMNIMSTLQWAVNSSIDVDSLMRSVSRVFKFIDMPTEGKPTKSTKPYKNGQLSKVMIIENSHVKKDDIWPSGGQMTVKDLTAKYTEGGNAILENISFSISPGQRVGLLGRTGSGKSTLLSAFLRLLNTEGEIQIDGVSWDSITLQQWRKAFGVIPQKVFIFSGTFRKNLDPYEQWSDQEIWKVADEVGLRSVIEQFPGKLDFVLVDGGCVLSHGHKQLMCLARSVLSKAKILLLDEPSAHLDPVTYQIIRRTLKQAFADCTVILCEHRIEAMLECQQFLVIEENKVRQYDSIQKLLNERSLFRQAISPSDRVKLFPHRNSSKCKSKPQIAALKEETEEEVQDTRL

Row | SMILES | Emax [1] | EC50 [2] | Maximum % activity (with co-corrector) [3] | EC50 [4] | Maximum % activity (with co-corrector) (with co-corrector (2 μM)) | Emax (without co-corrector) | EC50 [5] | EC50 [6] | Maximum % activity (with co-corrector) [7] | Emax (CSE-HRP, without co-corrector)
1 | COc1ccc(C(F)(F)F)cc1CN[C@H]1[C@H](C(C)(C)C)[C@@H](C(=O)O)N(C(=O)[C@H]2OCC[C@H]2C(C)C)[C@H]1c1ccccc1 (relative stereo) [Example I-106] | – | 1000 to 10000 nM | – | 1000 to 10000 nM | +++ (≥350) | > 200% | – | – | – | –
2 | Cc1ccc(C(F)(F)F)cc1CN[C@@H]1[C@@H](C(C)(C)C)[C@H](C(=O)O)N(C(=O)C2CCCCC2)[C@@H]1c1ccccc1 (racemic) [II-72] | – | – | – | – | – | – | < 1000 nM | 1000 to 10000 nM | ++ (≥150 and <350) | < 100%
3 | COc1ccc(C(F)(F)F)cc1CN[C@H]1[C@H](C(C)(C)C)[C@@H](C(=O)O)N(C(=O)C(Oc2ccc(Cl)cc2)C(C)C)[C@H]1c1ccccc1 (some centres unmarked) [II-399] | 100 to 200% | < 1000 nM | +++ (≥350) | < 1000 nM | – | – | – | – | – | –
4 | COc1ccc(-c2ccccc2)cc1CN[C@H]1[C@H](C(C)(C)C)[C@@H](C(=O)O)N(C(=O)C2CCCCC2)[C@H]1c1ccccc1F [II-245] | – | – | – | – | – | – | < 1000 nM | < 1000 nM | +++ (≥350) | 100 to 200%
5 | COc1ccc(C(C)(C)C)cc1CN[C@H]1[C@H](C(C)(C)C)[C@@H](C(=O)O)N(C(=O)C2CCCCC2)[C@H]1c1ccccc1 [Example 7, (2S,3S,4S,5S)-3-tert-butyl-4-{[(5-tert-butyl-2-methoxyphenyl)methyl]amino}-1-(cyclohexanecarbonyl)-5-phenylpyrrolidine-2-carboxylic acid] | – | < 1000 nM | – | < 1000 nM | +++ (≥350) | > 200% | – | – | – | –
6 | COc1ncc(-c2ccccc2)cc1CN[C@H]1[C@H](C(C)(C)C)[C@@H](C(=O)O)N(C(=O)C2CCCCC2)[C@H]1c1ccccc1F [II-423] | 100 to 200% | < 1000 nM | +++ (≥350) | < 1000 nM | – | – | – | – | – | –
7 | COc1ccc(C(F)(F)F)cc1CN[C@H]1[C@H](C(C)(C)C)[C@@H](C(=O)O)N(C(=O)C2COc3ccccc3O2)[C@H]1c1ccccc1 (some centres unmarked) [II-156] | – | – | – | – | – | – | 1000 to 10000 nM | 1000 to 10000 nM | ++ (≥150 and <350) | < 100%
8 | COc1ccc(C(C)(C)C)cc1CN[C@H]1[C@H](C(C)(C)C)[C@@H](C(=O)O)N(C(=O)CN2CCCC2)[C@H]1c1ccccc1 [II-187] | – | – | – | – | – | – | 1000 to 10000 nM | 1000 to 10000 nM | ++ (≥150 and <350) | < 100%
9 | COCC1(c2ccc(OC)c(CN[C@H]3[C@H](C(C)(C)C)[C@@H](C(=O)O)N(C(=O)C4CCCCC4)[C@H]3c3ccccc3)c2)CC1 [II-420] | 100 to 200% | 1000 to 10000 nM | +++ (≥350) | 1000 to 10000 nM | – | – | – | – | – | –
10 | CC(C)(C)[C@H]1[C@H](NCc2cc(Cl)c3c(c2)OCO3)[C@H](c2ccccc2)N(C(=O)C2CCCCC2)[C@@H]1C(=O)O [III-140] | < 100% | > 10000 nM | – | 1000 to 10000 nM | ++ (≥150 and <350) | – | – | – | – | –
11 | Cc1cc(C(F)(F)F)cc(N[C@H]2C(c3ccccc3)N(C(=O)N(C(C)C)C(C)C)[C@@H](C(=O)O)[C@@H]2C2CC2)n1 (mixture of isomers) [III-47] | < 100% | 1000 to 10000 nM | ++ (≥150 and <350) | 1000 to 10000 nM | – | – | – | – | – | –
12 | CC(C)(C)NC(=O)c1ccc(N[C@H]2[C@H](C(C)(C)C)[C@@H](C(=O)O)N(C(=O)C3CCCCC3)[C@H]2c2ccccc2)nc1 [III-155] | < 100% | > 10000 nM | – | 1000 to 10000 nM | + (<150) | – | – | – | – | –
13 | CC(C)(C)[C@H]1[C@H](NCc2coc3ccccc23)[C@H](c2ccccc2)N(C(=O)C2CCCCC2)[C@@H]1C(=O)O [II-100] | – | – | – | – | – | – | 1000 to 10000 nM | 1000 to 10000 nM | ++ (≥150 and <350) | < 100%
14 | COc1ccc(C2CCC2)cc1CN[C@H]1[C@H](C(C)(C)C)[C@@H](C(=O)O)N(C(=O)C2CCCCC2)[C@H]1c1ccccc1 [Example I-68] | – | < 1000 nM | – | < 1000 nM | +++ (≥350) | > 200% | – | – | – | –
15 | CC(C)OC(=O)N1[C@H](C(=O)O)[C@@H](C(C)(C)C)[C@H](NCC2CCCN(C(=O)OCc3ccccc3)C2)[C@@H]1c1ccccc1 (some centres unmarked) [II-583] | 100 to 200% | 1000 to 10000 nM | +++ (≥350) | 1000 to 10000 nM | – | – | – | – | – | –
16 | CC(C)(C)[C@@H]1[C@@H](NCc2ccccc2C#N)[C@@H](c2ccccc2)N(C(=O)C2CCCCC2)[C@H]1C(=O)O (racemic) [III-83] | < 100% | > 10000 nM | + (<150) | > 10000 nM | – | – | – | – | – | –
17 | COc1ccc(Cl)cc1CN[C@H]1[C@H](C(C)(C)C)[C@@H](C(=O)O)N(C(=O)C2CCCO2)[C@H]1c1ccccc1 (mixture of isomers) [II-61] | – | – | – | – | – | – | 1000 to 10000 nM | 1000 to 10000 nM | +++ (≥350) | 100 to 200%

Further lines, results first:

Row | Emax [1] | EC50 [2] | Maximum % activity (with co-corrector) [3] | EC50 [4] | Maximum % activity (with co-corrector) (with co-corrector (2 μM)) | Emax (without co-corrector) | EC50 [5] | EC50 [6] | Maximum % activity (with co-corrector) [7] | Emax (CSE-HRP, without co-corrector) | SMILES
18 | > 200% | 1000 to 10000 nM | +++ (≥350) | < 1000 nM | – | – | – | – | – | – | COc1ccc(C(C)(C)C)cc1CN[C@H]1[C@H](C(C)(C)C)[C@@H](C(=O)O)N(C(=O)[C@@H]2CCC[C@@H](OC)C2)[C@H]1c1cccnc1N(C)C (relative stereo) [II-449]
19 | – | – | – | – | – | – | 1000 to 10000 nM | 1000 to 10000 nM | +++ (≥350) | > 200% | COc1ccc(C(C)(C)C)cc1CN[C@H]1[C@H](C(C)(C)C)[C@@H](C(=O)O)N(C(=O)[C@@H]2CCCO2)[C@H]1c1cccnc1N(C)C [Example I-284]
20 | – | – | – | – | – | – | 1000 to 10000 nM | 1000 to 10000 nM | +++ (≥350) | 100 to 200% | COc1cc2c(cc1CN[C@H]1[C@H](C(C)(C)C)[C@@H](C(=O)O)N(C(=O)OC(C)C)[C@H]1c1cccnc1N(C)C)C(C)(C)CCC2(C)C [Example I-251]
21 | > 200% | 1000 to 10000 nM | +++ (≥350) | 1000 to 10000 nM | – | – | – | – | – | – | COc1ccc(C(C)(C)C)cc1CN[C@H]1[C@H](C(C)(C)C)[C@@H](C(=O)O)N(C(=O)CC(C)(O)C(C)C)[C@H]1c1ccccc1 (some centres unmarked) [II-372]
22 | < 100% | 1000 to 10000 nM | +++ (≥350) | 1000 to 10000 nM | – | – | – | – | – | – | COc1ccc2c(c1)[C@@](C)(C(=O)N1[C@H](C(=O)O)[C@@H](C(C)(C)C)[C@H](NCc3cc(C(C)(C)C)ccc3OC)[C@@H]1c1cccnc1OC)CC2 [II-569]
23 | – | – | – | – | – | – | 1000 to 10000 nM | 1000 to 10000 nM | +++ (≥350) | > 200% | COc1ccc(Cl)cc1CN[C@H]1[C@H](C(C)(C)C)[C@@H](C(=O)O)N(C(=O)[C@H](OC)c2ccccc2)[C@H]1c1ccccc1N(C)C [II-63]
24 | – | – | – | – | – | – | 1000 to 10000 nM | 1000 to 10000 nM | ++ (≥150 and <350) | < 100% | CC(C)OC(=O)N1[C@H](C(=O)O)[C@@H](C(C)(C)C)[C@H](NCCc2ccccc2)[C@@H]1c1ccccc1 [Example I-263]
25 | 100 to 200% | 1000 to 10000 nM | +++ (≥350) | 1000 to 10000 nM | – | – | – | – | – | – | COc1ccc(C(C)(C)C)cc1CN[C@H]1[C@H](C(C)(C)C)[C@@H](C(=O)O)N(C(=O)C2CC2(F)F)[C@H]1c1ccccc1 (some centres unmarked) [II-327]
26 | – | – | – | – | – | – | 1000 to 10000 nM | 1000 to 10000 nM | +++ (≥350) | > 200% | COc1ncc(C2CC2)cc1CN[C@H]1[C@H](C(C)(C)C)[C@@H](C(=O)O)N(C(=O)[C@@H]2CCCO2)[C@H]1c1ccccc1Br [Example I-293]
27 | > 200% | 1000 to 10000 nM | +++ (≥350) | < 1000 nM | – | – | – | – | – | – | COc1ccc(C(C)(C)C)cc1CN[C@H]1[C@H](C(C)(C)C)[C@@H](C(=O)O)N(C(=O)[C@@H]2CCCCO2)[C@H]1c1ccccc1F [II-460]
28 | < 100% | 1000 to 10000 nM | ++ (≥150 and <350) | 1000 to 10000 nM | – | – | – | – | – | – | COc1ncc(C(F)(F)F)cc1N[C@H]1[C@H](C(C)(C)C)[C@@H](C(=O)O)N(C(=O)C2CCCCC2)[C@H]1c1cccnc1N(C)C [II-461]
29 | < 100% | 1000 to 10000 nM | ++ (≥150 and <350) | 1000 to 10000 nM | – | – | – | – | – | – | COc1ccc2c(c1)[C@](C)(C(=O)N1[C@H](C(=O)O)[C@@H](C(C)(C)C)[C@H](NCc3cc(C(C)(C)C)ccc3OC)[C@@H]1c1cccnc1OC)CC2 [II-570]
30 | 100 to 200% | 1000 to 10000 nM | +++ (≥350) | 1000 to 10000 nM | – | – | – | – | – | – | COc1ncc(C(F)(F)F)cc1CN[C@H]1[C@H](C23CC(C2)C3)[C@@H](C(=O)O)N(C(=O)OC(C)C)[C@H]1c1ccccc1F [II-544]
31 | – | – | – | – | – | – | 1000 to 10000 nM | < 1000 nM | +++ (≥350) | > 200% | CCc1ccccc1[C@H]1[C@@H](NCc2cc(C3CCC3)cnc2OC)[C@H](C(C)(C)C)[C@@H](C(=O)O)N1C(=O)[C@@H]1CCCCO1 [Example I-297]
32 | – | – | – | – | – | – | 1000 to 10000 nM | 1000 to 10000 nM | +++ (≥350) | > 200% | COc1ccc(C(C)(C)C)cc1CN[C@H]1[C@H](C(C)(C)C)[C@@H](C(=O)O)N(C(=O)C2CCC2)[C@H]1c1ccccc1 [II-313]
